Assay results from patent US20080299041A1, “HETEROCYCLIC INDENE DERIVATIVES AND THEIR RADIOISOTOPE LABELED COMPOUNDS FOR IMAGING BETA-AMYLOID DEPOSITION” (SEOUL NATIONAL UNIVERSITY INDUSTRY FOUNDATION, priority 2007, published 2008).

Assays:
[1] = Biodistribution experiment in mice after tail vein injection of ^18F labeled compound; assay type: in vivo, Male ICR mice
Method: The penetration of BBB can be estimated by animal experiment. The radiolabeled compounds are intravenously injected to mice, and then the brains are obtained at 2 min, 30 min, and 60 min. The radioactivities of the brain are expressed as the percentage of injected dose per brain weight (gram).
FIG. 2. Biodistribution graph observed in each organ after injection of 2-(4′-[^18F]fluoromethyl)phenyl-1,3-benzothiazole through the mice tail veins. The mice were sacrificed at 2 min, 30 min and 60 min after injection, respectively, and then organs were taken out. The organs were weighed and their radioactivities were measured. The radioactivity distribution in each organ was calculated as the percentage of injected dose per organ weight (gram).
Male ICR mice (n=4/group, 29.9±1.6 g) were injected with 148 kBq/0.1 mL of 2-(4′-[^18F]fluoromethyl)phenyl-1,3-benzothiazole through the tail vein. These injected mice were sacrificed by decapitation 2, 30 and 60 min post-injection. Blood, muscle, lung, liver, spleen, stomach, intestine, brain, and bone were rapidly separated, weighed and counted using a NaI well counter. Results are expressed as percentages of the injected dose per gram of tissue (% ID/g), and represented in FIG. 2. Brain uptake at […] was 5.62±0.28% ID/g and ratio to 30 min was 3.75±0.97, which represent rapid uptake and wash out to and from normal brain.
A comparative mice biodistribution study using 2-(4′-O-(2′-[^18F]Fluoroethyl)hydroxyphenyl)benzothiophene and 2-(4′-O-(3′-[^18F]Fluoropropyl)hydroxyphenyl) benzothiophene was performed according to the same procedure with above Experiment 2.

Aβ1-40 aggregates = Aβ1-40 aggregates (Homo sapiens, UniProt P05067); experiment: In vitro competitive binding assay with 3′-[^125I]I-BTA-1 as radioligand, Aβ1-40 aggregates; conditions: Aβ aggregates 20 nM, 3 h at room temperature, pH 7.2
Method: (§1) Affinity to β-amyloid can be measured by incubation with β-amyloid precipitate and count the bound form after separation by centrifugation. Kd or Ki values are obtained either by saturation binding assay or competition assay.
(§2) Aβ1-40 or Aβ1-42 peptides were incubated in phosphate buffer (pH=7.2) overnight to prepare precipitates as reported in literatures, and then aliquoted and stored at −70[…]. (Klunk, W. E.; Wang, Y.; Huang, G-F.; Debnath, M. L.; Holt D. P.; Mathis, C. A. Uncharged thioflavin-T derivatives bind to amyloid-beta protein with high affinity and readily enter the brain. Life Sci. 2001, 69(13), […]; Zhuang, Z.-P.; Kung, M.-P.; Wilson, A.; Lee, C.-W.; Plossl, K.; Hou, C.; Holtzman, D. M.; Kung, H. F.; Structure-activity relationship of imidazo[1,2-a]pyridines as ligands for detecting β-amyloid plaques in the brain. J. Med. Chem. 2003; 46(2), 237-243)
(§3) The binding affinities of benzothiophene derivatives to Aβ aggregates were evaluated by competitive binding assays using 3′-[^125I]I-BTA-1 as a radioligand. […] Nonspecific binding was determined by incubation in the presence of 10 μM thioflavin-T. The reaction mixtures were filtered through Whatman GF/B glass filters and washed twice with 3 mL of 10% ethanol aliquots. Filters were counted using a Nat well counter. Ki values of the benzothiophene derivatives were then calculated from the results and represented on Table 1.

Aβ1-42 aggregates = Aβ1-42 aggregates (Homo sapiens, UniProt P05067); experiment: In vitro competitive binding assay with 3′-[^125I]I-BTA-1 as radioligand, Aβ1-42 aggregates; conditions: Aβ aggregates 20 nM, 3 h at room temperature, pH 7.2
Method: as §1, §2, §3

Aβ1-40 aggregates, sequence (P05067 672-711 limits assumed): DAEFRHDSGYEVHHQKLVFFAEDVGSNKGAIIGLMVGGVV
Aβ1-42 aggregates, sequence (P05067 672-713 limits assumed): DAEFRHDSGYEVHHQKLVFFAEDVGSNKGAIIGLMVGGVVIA

Compound | Ki (Aβ1-40 aggregates) | Ki (Aβ1-42 aggregates) | Blood uptake ([1]; 2 min post-injection) | Bone uptake ([1]; 2 min post-injection) | Brain uptake ([1]; 2 min post-injection) | Fat uptake ([1]; 2 min post-injection) | Heart uptake ([1]; 2 min post-injection) | Intestine uptake ([1]; 2 min post-injection) | Kidney uptake ([1]; 2 min post-injection) | Liver uptake ([1]; 2 min post-injection) | Lung uptake ([1]; 2 min post-injection) | Muscle uptake ([1]; 2 min post-injection) | Spleen uptake ([1]; 2 min post-injection) | Stomach uptake ([1]; 2 min post-injection) | Blood uptake ([1]; 30 min post-injection) | Bone uptake ([1]; 30 min post-injection) | Brain uptake ([1]; 30 min post-injection) | Fat uptake ([1]; 30 min post-injection) | Heart uptake ([1]; 30 min post-injection) | Intestine uptake ([1]; 30 min post-injection) | also measured
[18F]Cc1ccc(-c2nc3ccccc3s2)cc1 [2-(4′-[^18F]fluoromethyl)phenyl-1,3-benzothiazole] |  |  |  |  |  |  |  |  |  |  |  |  |  |  |  |  |  |  |  |  | Bone uptake (in words; in vivo defluorination) ([1]; tail vein): High bone uptake; Brain uptake ([1]; tail vein, "at min" post-injection (time figure missing)): 5.62±0.28 % ID/g; Brain uptake ratio to 30 min ([1]; tail vein, early brain uptake / 30 min): 3.75±0.97
FCc1ccc(-c2nc3ccccc3o2)cc1 [Benzoxaxole, 2-(4′-fluoromethyl)phenyl-1,3-benzoxazole] | 0.0757 ± 0.0432 µM | 0.0599 ± 0.00503 µM |  |  |  |  |  |  |  |  |  |  |  |  |  |  |  |  |  |  | 
[18F]CCOc1ccc(-c2cc3ccccc3s2)cc1 [2-(4′-O-(2′-[^18F]Fluoroethyl)hydroxyphenyl)benzothiophene] |  |  | 3.5 ± 0.2 % ID/g | 2.5 ± 0.2 % ID/g | 5.2 ± 0.4 % ID/g | 0.9 ± 0.3 % ID/g | 8.8 ± 1.0 % ID/g | 2.7 ± 0.2 % ID/g | 11.8 ± 0.9 % ID/g | 9.3 ± 1.5 % ID/g | 9.3 ± 1.1 % ID/g | 2.9 ± 0.3 % ID/g | 4.4 ± 0.8 % ID/g | 2.1 ± 0.7 % ID/g | 3.8 ± 0.4 % ID/g | 3.3 ± 0.2 % ID/g | 5.2 ± 0.5 % ID/g | 2.1 ± 1.0 % ID/g | 3.2 ± 0.2 % ID/g | 7.2 ± 0.6 % ID/g | Kidney uptake ([1]; 30 min post-injection): 4.1 ± 0.7 % ID/g; Liver uptake ([1]; 30 min post-injection): 3.9 ± 0.7 % ID/g; Lung uptake ([1]; 30 min post-injection): 3.4 ± 0.6 % ID/g; Muscle uptake ([1]; 30 min post-injection): 2.7 ± 0.3 % ID/g; Spleen uptake ([1]; 30 min post-injection): 2.7 ± 0.5 % ID/g; Stomach uptake ([1]; 30 min post-injection): 2.5 ± 0.3 % ID/g
[18F]CCCOc1ccc(-c2cc3ccccc3s2)cc1 [2-(4′-O-(3′-[^18F]Fluoropropyl)hydroxyphenyl)benzothiophene] |  |  | 3.3 ± 0.5 % ID/g | 2.2 ± 0.2 % ID/g | 3.3 ± 0.2 % ID/g | 0.7 ± 0.1 % ID/g | 11.9 ± 0.6 % ID/g | 2.4 ± 0.2 % ID/g | 13.5 ± 1.2 % ID/g | 17.0 ± 0.6 % ID/g | 10.2 ± 1.4 % ID/g | 3.0 ± 0.2 % ID/g | 4.1 ± 1.2 % ID/g | 1.8 ± 0.5 % ID/g | 1.4 ± 0.1 % ID/g | 10.7 ± 0.6 % ID/g | 4.0 ± 0.4 % ID/g | 1.9 ± 0.4 % ID/g | 1.8 ± 0.3 % ID/g | 5.5 ± 0.4 % ID/g | Kidney uptake ([1]; 30 min post-injection): 4.4 ± 0.4 % ID/g; Liver uptake ([1]; 30 min post-injection): 6.1 ± 0.6 % ID/g; Lung uptake ([1]; 30 min post-injection): 2.2 ± 0.6 % ID/g; Muscle uptake ([1]; 30 min post-injection): 1.6 ± 0.1 % ID/g; Spleen uptake ([1]; 30 min post-injection): 1.5 ± 0.2 % ID/g; Stomach uptake ([1]; 30 min post-injection): 1.0 ± 0.4 % ID/g
2-(4′-fluoromethyl)phenyl-1,3-benzothiazole | 0.0269 ± 0.00504 µM | 0.0281 ± 0.00444 µM |  |  |  |  |  |  |  |  |  |  |  |  |  |  |  |  |  |  | 
